Data taken from patent US5326764A, “Method for the treatment of hyperproliferative disorders” (Yale University, priority 1993, dated 1994).

Test system: human neonatal foreskin keratinocytes
Assay: Keratinocyte growth by cell counting after seven days
Format: cell-based
Conditions: 168 h

CN(Cc1cnc2nc(N)nc(N)c2n1)c1ccc(C(=O)N[C@@H](CCC(=O)O)C(=O)O)cc1 [methotrexate]
inhibition at 0.1 µM (read-out: inhibition of growth of keratinocytes): 32%

O=c1[nH]cc(F)c(=O)[nH]1 [5-fluorouracil]
inhibition at 0.5 µM (read-out: inhibition of cell growth): 30%
